Where two headings read alike, the source gives them in different places.
Legend:
PfCRT^Ecu1110 [1] = biological target: T1, PfCRT^Ecu1110 (Plasmodium falciparum, UniProt Q9N623, A220S/I356L/K76T/N326D); experiment: cell-based; type: cell-based; settings: trans-stimulation; [test solute]i = 45 mM (30 mM for some solutes due to solubility); PfCRT-mediated component (background subtracted), sheet title says normalised to PfCRTDd2 control; mean ± SEM; SEM
Method in brief: (§1)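 Oocytes (ten per treatment, ≥4 independent frogs/days) were preloaded by injecting VF-6 in 25 nL ND96 at pH 5.0, 5.5, 6.0 or 7.0, or Na^+-free choline buffer, then uptake run 1.5 h, 27.5 °C, ND96 pH 5.5 by default. Internal concentrations assumed ~400 nL oocyte volume.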

PfCRT^3D7 = PfCRT^3D7 (Plasmodium falciparum, UniProt Q8IBZ9); experiment: cell-based; type: cell-based; settings: total [3H]CQ transport; for Uptake of [3H]CQ (% PfCRT3D7 control), cis-inhibition: PfCRT3D7 oocytes, normalised to the oocyte type control; for Uptake of [3H]CQ (% PfCRTDd2 control), cis-inhibition, PfCRT3D7: mean ± SEM, SEM
Method in brief: (§2)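 Each treatment used ten oocytes, repeated in at least four experiments on different days with oocytes from different frogs. Conditions: ND96 pH 5.5, 27.5 °C, 1.5 h; read-out by scintillation counting.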

non-expressing oocytes = type: cell-based, Xenopus laevis; settings: total [3H]CQ transport; for Uptake of [3H]CQ (% non-expressing oocyte control), trans-stimulation: non-expressing oocytes, normalised to the oocyte type control; for Uptake of [3H]CQ (% PfCRTDd2 control), trans-stimulation, non-expressing oocytes: mean ± SEM, SEM
Method in brief: as §1

PfCRT [2] = experiment: Influx of VF-6 via PfCRT into the oocyte, solutes tested as potential co-substrates; type: cell-based, Plasmodium falciparum; set-up: key: X: Compounds that have been tested as potential co-substrates but are not required for influx of VF-6 via PfCRT into the oocyte; settings: X marks the solute
PfCRT^Dd2 = PfCRT^Dd2 (Plasmodium falciparum, UniProt Q9N623, A220S/I356T/K76T/M74I/N326S/N75E/Q271E/R371I); experiment: [3H]CQ uptake into Xenopus oocytes, cis-inhibition by unlabelled solute; type: cell-based; settings: for Uptake of [3H]CQ (% PfCRTDd2 control), cis-inhibition / PfCRT-mediated [3H]CQ transport, cis-inhibition (% PfCRTDd2 control): PfCRTDd2 oocytes; for Uptake of [3H]CQ (% PfCRTDd2 control), cis-inhibition / Uptake of [3H]CQ (% PfCRTDd2 control), cis-inhibition, PfCRTDd2: total [3H]CQ transport; for Uptake of [3H]CQ (% PfCRTDd2 control), cis-inhibition: normalised to the oocyte type control; for PfCRT-mediated [3H]CQ transport, cis-inhibition (% PfCRTDd2 control): background [3H]CQ accumulation subtracted, normalised to oocyte type control; for Uptake of [3H]CQ (% PfCRTDd2 control), cis-inhibition, PfCRTDd2: mean ± SEM, SEM
Method in brief: as §2

PfCRT^Ecu1110 [3] = biological target: T1, PfCRT^Ecu1110; experiment: as above; type: cell-based; settings: for Uptake of [3H]CQ (% PfCRTEcu1110 control), cis-inhibition / PfCRT-mediated [3H]CQ transport, cis-inhibition (% PfCRTEcu1110 control): PfCRTEcu1110 oocytes; for Uptake of [3H]CQ (% PfCRTEcu1110 control), cis-inhibition / Uptake of [3H]CQ (% PfCRTDd2 control), cis-inhibition, PfCRTEcu1110: total [3H]CQ transport; for Uptake of [3H]CQ (% PfCRTEcu1110 control), cis-inhibition: normalised to the oocyte type control; for PfCRT-mediated [3H]CQ transport, cis-inhibition (% PfCRTEcu1110 control): background [3H]CQ accumulation subtracted, normalised to oocyte type control; for [3H]CQ transport (% PfCRTEcu1110 control), cis-inhibition, PfCRTEcu1110: PfCRT-mediated component (background subtracted), sheet title says normalised to PfCRTDd2 control; for [3H]CQ transport (% PfCRTEcu1110 control), cis-inhibition, PfCRTEcu1110 / Uptake of [3H]CQ (% PfCRTDd2 control), cis-inhibition, PfCRTEcu1110: mean ± SEM, SEM
Method in brief: as §2

PfCRT [4] = experiment: Potential co-substrates tested for influx of VF-6 via PfCRT into the oocyte; type: cell-based, Plasmodium falciparum; set-up: key: X: Compounds that have been tested as potential co-substrates but are not required for influx of VF-6 via PfCRT into the oocyte

PfCRT^Dd2, sequence (Q9N623 whole entry A220S/I356T/K76T/M74I/N326S/N75E/Q271E/R371I): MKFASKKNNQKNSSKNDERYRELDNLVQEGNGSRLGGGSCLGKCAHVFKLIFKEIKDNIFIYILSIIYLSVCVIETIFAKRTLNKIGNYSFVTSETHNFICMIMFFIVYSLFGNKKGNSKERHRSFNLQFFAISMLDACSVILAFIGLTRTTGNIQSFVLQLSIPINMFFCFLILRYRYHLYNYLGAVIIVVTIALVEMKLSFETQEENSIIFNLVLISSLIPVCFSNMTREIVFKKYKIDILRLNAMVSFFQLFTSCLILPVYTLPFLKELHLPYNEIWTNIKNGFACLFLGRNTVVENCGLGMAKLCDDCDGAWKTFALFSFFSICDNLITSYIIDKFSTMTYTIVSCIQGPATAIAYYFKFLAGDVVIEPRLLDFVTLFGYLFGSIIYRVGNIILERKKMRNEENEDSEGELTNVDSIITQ
T1 sequence (Q9N623 whole entry A220S/I356L/K76T/N326D): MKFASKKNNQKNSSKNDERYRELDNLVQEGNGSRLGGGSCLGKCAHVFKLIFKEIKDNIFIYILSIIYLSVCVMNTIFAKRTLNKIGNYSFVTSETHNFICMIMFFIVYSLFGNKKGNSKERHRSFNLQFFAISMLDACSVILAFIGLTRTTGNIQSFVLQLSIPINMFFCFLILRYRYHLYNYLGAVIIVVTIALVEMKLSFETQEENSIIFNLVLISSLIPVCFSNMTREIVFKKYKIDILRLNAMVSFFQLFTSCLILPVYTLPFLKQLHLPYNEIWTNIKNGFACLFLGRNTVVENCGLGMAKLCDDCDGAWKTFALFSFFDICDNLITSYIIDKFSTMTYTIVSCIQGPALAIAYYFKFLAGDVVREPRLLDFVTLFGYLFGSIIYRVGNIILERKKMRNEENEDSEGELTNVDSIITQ
PfCRT^3D7, sequence (Q8IBZ9 59-398): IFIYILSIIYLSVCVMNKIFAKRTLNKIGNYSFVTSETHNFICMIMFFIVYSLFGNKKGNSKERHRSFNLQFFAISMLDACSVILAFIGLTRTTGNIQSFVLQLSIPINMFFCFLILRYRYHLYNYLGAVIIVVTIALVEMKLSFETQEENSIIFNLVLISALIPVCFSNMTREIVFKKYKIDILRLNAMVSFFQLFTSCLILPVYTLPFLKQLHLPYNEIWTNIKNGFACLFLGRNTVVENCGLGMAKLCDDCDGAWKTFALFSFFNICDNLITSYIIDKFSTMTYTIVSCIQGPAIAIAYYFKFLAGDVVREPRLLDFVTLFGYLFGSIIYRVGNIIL

NC(=O)C[C@H](N)C(=O)O [L-asparagine]
[3H]CQ transport (% PfCRTDd2 control), trans-stimulation, PfCRTEcu1110 (PfCRT^Ecu1110 [1]): 32 ± 2.1 % PfCRTEcu1110 control | Uptake of [3H]CQ (% PfCRT3D7 control), cis-inhibition (PfCRT^3D7; [test solute] = 0.5 mM): 98 ± 2.4 % PfCRT3D7 control | Uptake of [3H]CQ (% PfCRT3D7 control), cis-inhibition (PfCRT^3D7; [test solute] = 1 mM): 98 ± 3.5 % PfCRT3D7 control | Uptake of [3H]CQ (% PfCRT3D7 control), cis-inhibition (PfCRT^3D7; [test solute] = 2 mM): 101 ± 4.7 % PfCRT3D7 control | Uptake of [3H]CQ (% PfCRTDd2 control), cis-inhibition, PfCRT3D7 (PfCRT^3D7; [test solute] = 0.5 mM): 2.6 ± 0.04 % PfCRTDd2 control | Uptake of [3H]CQ (% PfCRTDd2 control), cis-inhibition, PfCRT3D7 (PfCRT^3D7; [test solute] = 1 mM): 2.2 ± 0.03 % PfCRTDd2 control | Uptake of [3H]CQ (% PfCRTDd2 control), cis-inhibition, PfCRT3D7 (PfCRT^3D7; [test solute] = 2 mM): 3.4 ± 0.07 % PfCRTDd2 control | Uptake of [3H]CQ (% non-expressing oocyte control), trans-stimulation (non-expressing oocytes; [test solute]i = 5 mM): 100 ± 3.7 % non-expressing oocyte control | Uptake of [3H]CQ (% non-expressing oocyte control), trans-stimulation (non-expressing oocytes; [test solute]i = 45 mM (30 mM for some solutes due to solubility)): 99 ± 3.0 % non-expressing oocyte control | Uptake of [3H]CQ (% PfCRTDd2 control), trans-stimulation, non-expressing oocytes (non-expressing oocytes; [test solute]i = 5 mM (intracellular)): 3.2 ± 0.02 % PfCRTDd2 control | Uptake of [3H]CQ (% PfCRTDd2 control), trans-stimulation, non-expressing oocytes (non-expressing oocytes; [test solute]i = 45 mM (intracellular; 30 mM for some solutes due to solubility)): 2.4 ± 0.02 % PfCRTDd2 control | Compounds that have been tested as potential co-substrates but are not required for influx of VF-6 via PfCRT into the oocyte (PfCRT [2]): X | Uptake of [3H]CQ (% PfCRTDd2 control), cis-inhibition (PfCRT^Dd2; [test solute] = 0.5 mM): 100 ± 5.3 % PfCRTDd2 control | Uptake of [3H]CQ (% PfCRTDd2 control), cis-inhibition (PfCRT^Dd2; [test solute] = 2 mM): 100 ± 8.5 % PfCRTDd2 control | PfCRT-mediated [3H]CQ transport, cis-inhibition (% PfCRTDd2 control) (PfCRT^Dd2; [test solute] = 0.5 mM): 98 ± 4.1 % PfCRTDd2 control | PfCRT-mediated [3H]CQ transport, cis-inhibition (% PfCRTDd2 control) (PfCRT^Dd2; [test solute] = 1 mM): 99 ± 6.2 % PfCRTDd2 control | PfCRT-mediated [3H]CQ transport, cis-inhibition (% PfCRTDd2 control) (PfCRT^Dd2; [test solute] = 2 mM): 95 ± 3.5 % PfCRTDd2 control | Uptake of [3H]CQ (% PfCRTDd2 control), cis-inhibition, PfCRTDd2 (PfCRT^Dd2; [test solute] = 0.5 mM): 100 ± 5.3 % PfCRTDd2 control | Uptake of [3H]CQ (% PfCRTDd2 control), cis-inhibition, PfCRTDd2 (PfCRT^Dd2; [test solute] = 1 mM): 101 ± 8.1 % PfCRTDd2 control | Uptake of [3H]CQ (% PfCRTDd2 control), cis-inhibition, PfCRTDd2 (PfCRT^Dd2; [test solute] = 2 mM): 100 ± 8.5 % PfCRTDd2 control | Uptake of [3H]CQ (% PfCRTEcu1110 control), cis-inhibition (PfCRT^Ecu1110 [3]; [test solute] = 0.5 mM): 96 ± 6.6 % PfCRTEcu1110 control | Uptake of [3H]CQ (% PfCRTEcu1110 control), cis-inhibition (PfCRT^Ecu1110 [3]; [test solute] = 1 mM): 88 ± 6.1 % PfCRTEcu1110 control | Uptake of [3H]CQ (% PfCRTEcu1110 control), cis-inhibition (PfCRT^Ecu1110 [3]; [test solute] = 2 mM): 102 ± 6.2 % PfCRTEcu1110 control | PfCRT-mediated [3H]CQ transport, cis-inhibition (% PfCRTEcu1110 control) (PfCRT^Ecu1110 [3]; [test solute] = 0.5 mM): 94 ± 3.6 % PfCRTEcu1110 control | PfCRT-mediated [3H]CQ transport, cis-inhibition (% PfCRTEcu1110 control) (PfCRT^Ecu1110 [3]; [test solute] = 1 mM): 84 ± 4.9 % PfCRTEcu1110 control | PfCRT-mediated [3H]CQ transport, cis-inhibition (% PfCRTEcu1110 control) (PfCRT^Ecu1110 [3]; [test solute] = 2 mM): 100 ± 5.1 % PfCRTEcu1110 control | [3H]CQ transport (% PfCRTEcu1110 control), cis-inhibition, PfCRTEcu1110 (PfCRT^Ecu1110 [3]; [test solute] = 1 mM): 25 ± 0.6 % PfCRTEcu1110 control | [3H]CQ transport (% PfCRTEcu1110 control), cis-inhibition, PfCRTEcu1110 (PfCRT^Ecu1110 [3]; [test solute] = 2 mM): 30 ± 0.2 % PfCRTEcu1110 control | Uptake of [3H]CQ (% PfCRTDd2 control), cis-inhibition, PfCRTEcu1110 (PfCRT^Ecu1110 [3]; [test solute] = 0.5 mM): 31 ± 1.5 % PfCRTDd2 control | Uptake of [3H]CQ (% PfCRTDd2 control), cis-inhibition, PfCRTEcu1110 (PfCRT^Ecu1110 [3]; [test solute] = 1 mM): 28 ± 1.8 % PfCRTDd2 control | Uptake of [3H]CQ (% PfCRTDd2 control), cis-inhibition, PfCRTEcu1110 (PfCRT^Ecu1110 [3]; [test solute] = 2 mM): 33 ± 2.2 % PfCRTDd2 control | Tested as potential co-substrate but not required for influx of VF-6 via PfCRT into the oocyte (PfCRT [4]): X

From paper PMC7413254 (Nature Communications, 2020)
